Measurements published in patent US11446287B2, “Compounds and methods for EP300 or CBP modulation and indications therefor” (Opna Immuno-Oncology SA, priority 2019, dated 2022).

Target: T1, Recombinant human CBP containing the bromodomain (CBP-BD (1043-1159)) (Homo sapiens, UniProt Q92793)
T1 construct: Recombinant human CBP bromodomain (CBP-BD (1043-1159)); made in house; host or cells: E. coli BL21-CodonPlus (DE3), modified pET vector
Experiment: CBP Alphascreen binding assay
Settings: read-out: CREBBP (CBP) IC50
Method in brief: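 Buffer: 50 mM HEPES pH 7.5, 50 mM NaCl, 0.01% BSA, 0.01% Triton X-100, 2 mM DTT. The signal was normalised to plate controls and fitted with a four-parameter curve to give IC50.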

T1 sequence (Q92793 1081-1197): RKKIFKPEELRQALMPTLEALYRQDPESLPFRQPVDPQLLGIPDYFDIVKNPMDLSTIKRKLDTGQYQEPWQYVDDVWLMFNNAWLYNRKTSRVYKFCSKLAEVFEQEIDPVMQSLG

Compound	IC50 [µM]
COC(=O)c1cc(-c2cn(C(c3ccccn3)C3CCC3)c3ncc(-c4c(C)noc4C)cc23)ccn1 (stereo not shown) [P-0046, methyl 4-(1-(cyclobutyl(pyridin-2-yl)methyl)-5-(3,5-dimethylisoxazol-4-yl)-1H-pyrrolo[2,3-b]pyridin-3-yl)picolinate]	0.0001 to 1
Cc1noc(C)c1-c1cnc2c(c1)c(-c1c(Cl)cc(C(=O)O)cc1OC(F)(F)F)cn2-c1cccnn1 [P-0439, 3-chloro-4-(5-(3,5-dimethylisoxazol-4-yl)-1-(pyridazin-3-yl)-1H-pyrrolo[2,3-b]pyridin-3-yl)-5-(trifluoromethoxy)benzoic acid]	0.0001 to 1
Cc1noc(C)c1-c1cnc2c(c1)c(-c1ccc(C(=O)O)cc1OC(F)(F)F)cn2-c1ccc(C2CC2)nc1 [P-0388, 4-(1-(6-cyclopropylpyridin-3-yl)-5-(3,5-dimethylisoxazol-4-yl)-1H-pyrrolo[2,3-b]pyridin-3-yl)-3-(trifluoromethoxy)benzoic acid]	0.0001 to 1
Cc1noc(C)c1-c1cnc2c(c1)c(-c1cccc(C(=O)O)c1)cn2Cc1ccccn1 [P-0049, 3-(5-(3,5-dimethylisoxazol-4-yl)-1-(pyridin-2-ylmethyl)-1H-pyrrolo[2,3-b]pyridin-3-yl)benzoic acid]	0.0001 to 1
Cc1noc(C)c1-c1cnc2c(c1)c(-c1ccc(C(=O)O)cc1OC(F)(F)F)cn2C1CCC(C#N)C1 (stereo not shown) [P-0389, 4-(1-(3-cyanocyclopentyl)-5-(3,5-dimethylisoxazol-4-yl)-1H-pyrrolo[2,3-b]pyridin-3-yl)-3-(trifluoromethoxy)benzoic acid]	0.0001 to 1
Cc1noc(C)c1-c1cnc2c(c1)c(-c1c(Cl)cc(C(=O)O)cc1OCC(F)F)cn2-c1cnc(C2CC2)nc1 [P-0390, 3-chloro-4-(1-(2-cyclopropylpyrimidin-5-yl)-5-(3,5-dimethylisoxazol-4-yl)-1H-pyrrolo[2,3-b]pyridin-3-yl)-5-(2,2-difluoroethoxy)benzoic acid]	0.0001 to 1
CCOc1nc(C(=O)O)cc(C)c1-c1cn(C(C2CC2)C2CC2)c2ncc(-c3c(C)noc3C)cc12 [P-0417, 5-(1-(dicyclopropylmethyl)-5-(3,5-dimethylisoxazol-4-yl)-1H-pyrrolo[2,3-b]pyridin-3-yl)-6-ethoxy-4-methylpicolinic acid]	0.0001 to 1
Cc1noc(C)c1-c1cnc2c(c1)c(-c1ccnc(C(=O)O)c1C)cn2C1CCOCC1 [P-0419, 4-(5-(3,5-dimethylisoxazol-4-yl)-1-(tetrahydro-2H-pyran-4-yl)-1H-pyrrolo[2,3-b]pyridin-3-yl)-3-methylpicolinic acid]	0.0001 to 1
Cc1noc(C)c1-c1cnc2c(Cc3ccccc3)cn(-c3ccnc(C(=O)O)c3)c2c1 [P-0053, 4-(3-benzyl-6-(3,5-dimethylisoxazol-4-yl)-1H-pyrrolo[3,2-b]pyridin-1-yl)picolinic acid]	0.0001 to 1
Cc1noc(C)c1-c1cnc2c(C(=O)c3ccccc3)cn(-c3ccnc(C(=O)O)c3)c2c1 [P-0054, 4-(3-benzoyl-6-(3,5-dimethylisoxazol-4-yl)-1H-pyrrolo[3,2-b]pyridin-1-yl)picolinic acid]	0.0001 to 1
Cc1noc(C)c1-c1cnc2c(c1)c(-c1cccc(C(=O)O)c1)cn2Cc1ccccc1 [P-0048, 3-(1-benzyl-5-(3,5-dimethylisoxazol-4-yl)-1H-pyrrolo[2,3-b]pyridin-3-yl)benzoic acid]	0.0001 to 1
Cc1noc(C)c1-c1cnc2c(c1)c(-c1c(Cl)cc(C(=O)O)cc1OC1CCC1)cn2-c1cnc(C2CC2)nc1 [P-0391, 3-chloro-5-cyclobutoxy-4-(1-(2-cyclopropylpyrimidin-5-yl)-5-(3,5-dimethylisoxazol-4-yl)-1H-pyrrolo[2,3-b]pyridin-3-yl)benzoic acid]	0.0001 to 1
Cc1noc(C)c1-c1cnc2c(c1)c(-c1c(Cl)cc(C(=O)O)cc1OC(C)C)cn2C1(C)CCOCC1 [P-0404, 3-chloro-4-(5-(3,5-dimethylisoxazol-4-yl)-1-(4-methyltetrahydro-2H-pyran-4-yl)-1H-pyrrolo[2,3-b]pyridin-3-yl)-5-isopropoxybenzoic acid]	0.0001 to 1
